From paper PMC10126419, “pyHeart4Fish: Chamber-specific heart phenotype quantification of zebrafish in high-content screens” (Frontiers in Cell and Developmental Biology, 2023)
“Also recorded” adds a separate entry of the source. Structures can show the parent of a compound that is named as a salt. Where two headings read alike, the source gives them in different places.

Legend:
[1] = set-up: method as in Prestwick Chemical Library; conditions: solvents; library annotation, ref Prestwick Chemical Library; cited from earlier work
[2] = tested on: Tg(myl7:eGFP)^twu34/+ zebrafish embryos; conditions: in vivo;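 note: embryos exposed 24 h from 24 hpf in 0.2% DMSO egg water, tricaine-anaesthetised, heartbeat videos imaged at 470 nm and hearts analysed chamber by chamber from pixel-intensity beat curves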
Method: (§1) Embryos were dechorionated at 21 hpf using 0.22 mg/ml pronase (Merck Chemicals) for 12 min. Then, embryos were carefully washed three times with egg water and transferred into a 96-deep-well plate. After incubation at 28°C for 3 h, excess water was removed with a glass capillary and exchanged with 100 µL/well of 20 µM compound solution from the Prestwick Chemical Library (Prestwick Chemicals, France) in 0.2% DMSO (v/v) in egg water. […] Subsequently, embryos were exposed to compounds for 24 h at 28°C in the dark to enable testing of light-sensitive compounds. Solutions were removed at 48 hpf before wells containing embryos were washed three times with system water. Then, treated embryos were transferred into 12-well plates containing 1 ml 0.03% tricaine in system water (Sigma-Aldrich, Germany). Testing different concentrations (5–80 µM) of compounds and their respective controls followed the above protocol.
(§2) Oriented embryos in 96-well plates were automatically imaged using an [sequence] Imaging Machine ([sequence] Imaging, Germany) widefield microscope. Z-stacks of 10 slices (dZ = 15 µm) were acquired in brightfield (BF) and 470 nm channels with a 4×0.13 numerical aperture objective. The focal plane was detected in the 470 nm channel using a course and secondary fine software autofocus. BF integration time was fixed at 20 ms exposure time and 55% LED intensity. The exposure time for the 470 nm channel was set to 10 ms with a 10% LED intensity. Heartbeat videos of 6 s at 6 frames/second (f/s) were acquired with a time-lapse at a 0 s interval in the focus plane acquired after secondary autofocus using the previously described integration and exposure settings with a 10×0.25 numerical aperture objective.
(§3) Hearts are analyzed chamber-specifically via the user-assisted region of interest (ROI) selection. Cardiac morphology parameters (HS and shape) are extracted as the median of the first six images/frames. Raw data of heartbeat curves for the atrium and ventricle are derived from the sum of pixel intensities and normalized chamber areas. Frequencies (in s^-1) of atrium and ventricle contraction are obtained by applying sine-curve fitting or fast Fourier transformation (FFT) using the SciPy modules “optimize.curve_fit” and “fft.rfft/fft.rfftfreq”, respectively ([Virtanen et al., 2020]). Curve fitting is performed with a maximum of 30 iterations while increasing the frequencies of the fitted sine function. The best fit is selected using the correlation coefficient between the raw data and the fitted function implemented in the NumPy package. A fitted sine function and fitting score are also determined for a truncated signal (first quarter), and the best-fitted sine function is kept to account for an unstable heartbeat signal. In the case of FFT, the first harmonic of the FFT signal is used as the frequency of the atrium or ventricle contraction. Analysis with pyHeart4Fish provides heartbeat videos in GIF format, heartbeat curves as PNG/PDF files and a data sheet containing meta information and cardiac parameters.

zebrafish embryos = test: Manually assessed pericardial edema in treated zebrafish; type: in vivo
Excerpt: FIGURE 4 Quantitative data analysis with pyHeart4Fish. […] (A) The left graph presents the detected heart rate derived from the fast fourier transformation (FFT). […] (B) Percentual data on the severity of manually assessed pericardial edema in treated Tg(myl7:eGPF)^twu34/+ zebrafish. (C) The relative contractility derived from percentual size changes of each heart chamber (left graph). Approximate ejection fraction determined by chamber volume changes (right graph). […] The number of fish analyzed is shown in brackets after the treatment condition. Dotted gray lines indicate z-scores of ±1.96 and statistical significance with an alpha error of 5%.

[3] = tested on: Tg(fli1a:nEGFP)^y7 zebrafish embryos; test: Primary high-content heart rate screen of the Prestwick Chemical Library (HeartBeat software v.2.1); type: in vivo; conditions: 20 µM
Excerpt: Acquired image series were preprocessed and analyzed using the previously published HeartBeat software v.2.1 and provided scripts ([Gierten et al., 2020]). For increased comparability between experiments, each quantitative HR value (beats per minute) was divided by the mean of the DMSO controls from the respective experiment. This procedure minimizes variation and creates specific fold-change values that are z-score normalized in the next step. A 90% CI was used to reduce the probability of false-negative results. Finally, data from compounds with insufficient N and known aquatic toxicity were removed.
Based on a previously established high-throughput screening pipeline, we performed a high-content drug screen in zebrafish for cardiovascular modulators ([Poureetezadi et al., 2014]; [Gierten et al., 2020]; [Westhoff et al., 2020]). […] About 98% of the library’s compounds are approved by the Food and Drug Administration (FDA), European Medicines Agency (EMA) or other regulatory agencies. The drug library was screened at a concentration of 20 µM for 24 h until 48 hpf using the transgenic zebrafish line Tg(fli1a:nEGFP)^y7. Subsequently, BF images and videos were captured at 2 dpf to assess gross morphology. HR was analyzed with the previously published tool HeartBeat (v.2.1) to identify potential hit compounds. A 90% CI threshold for effect sizes of ±1.64 was used to reduce false-negative results. […] The Open Targets platform and the Mayo Clinic Drugs and Supplements Database were systematically searched for compound names and common synonyms ([Drugs and Supplements, 2022]; [Open Targets, 2022]). The Medical Subject Headings (MeSH) terms “compound name” and “heart rate” were applied to NCBI PubMed literature research before the first five pages of publications sorted by relevance were screened for relevant information. Furthermore, compounds were filtered for unknown targets (n = 3), FDA black box warning (n = 6) and aquatic toxicity (n = 4). […] Therefore, compounds with n < 3 were excluded (n = 7).

[4] = tested on: Tg(myl7:eGFP)^twu34/+ zebrafish embryos; test: Chamber-specific quantitative heart phenotyping with pyHeart4Fish; conditions: 20 µM; for Arrhythmia / Conduction defect: number of fish;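 for all read-outs here: embryos exposed 24 h from 24 hpf in 0.2% DMSO egg water, tricaine-anaesthetised, heartbeat videos imaged at 470 nm and hearts analysed chamber by chamber from pixel-intensity beat curves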
Method: as §1, §2, §3

[5] = Tg(fli1a:nEGFP)^y7, zebrafish, in vivo, 24 h
[6] = 24 h until 48 hpf, Tg(fli1a:nEGFP)y7
[7] = number of fish, 20 µM, Tg(myl7:eGFP)

CN(C)CCOC(c1ccc(Cl)cc1)c1ccccn1.O=C(O)/C=C\C(=O)O (stereo not drawn) [Carbinoxamine maleate salt]
Lit. Solubility [1]: H2O, EtOH, CHCl3

[Cl-].[Na+] [NaCl, sodium chloride]
Arrhythmia [2]: 1
Chamber size Atrium Max. Contraction [2]: -0.090 z-score
Chamber size Atrium Max. Dilation [2]: -0.215 z-score
Chamber size Ventricle Max. Contraction [2]: -0.643 z-score
Chamber size Ventricle Max. Dilation [2]: 0.353 z-score
Conduction defect [2]: 0
Effect on heart function / morphology: contractility, conduction, arrhythmia, HS, EF [2]: did not significantly affect heart morphology or functionality
Ejection Fraction Atrium [2]: -0.097 z-score
Ejection Fraction Ventricle [2]: 1.036 z-score
FFT freq Atrium (heart rate) [2]: -0.679 z-score
FFT freq Ventricle (heart rate) [2]: -0.573 z-score
Heart size [2]: 0.745 z-score
Relative contractility Atrium [2]: -0.00158 z-score
Relative contractility Ventricle [2]: 0.272 z-score
Edema: Mild (zebrafish embryos; zebrafish, in vivo): 7
Edema: Moderate (zebrafish embryos; zebrafish, in vivo): 0
Edema: No edema (zebrafish embryos; zebrafish, in vivo): 8
Edema: Severe (zebrafish embryos; zebrafish, in vivo): 0

CN1CCC[C@@H]1CCO[C@](C)(c1ccccc1)c1ccc(Cl)cc1 [Clemastine fumarate]
Z-score Heart rate [3, 5]: -2.7618 z-score
Lit. Solubility [1]: MeOH

CN1CCCN(C(c2ccccc2)c2ccc(Cl)cc2)CC1.Cl.Cl (stereo not drawn) [Homochlorcyclizine dihydrochloride]
Z-score Heart rate [3, 6]: -1.853 z-score

CN1CCN(C(c2ccccc2)c2ccc(Cl)cc2)CC1 (stereo not drawn) [Chlorcyclizine hydrochloride]
Z-score Heart rate [3, 6]: -2.061 z-score
Lit. Solubility [1]: H2O, CHCl3

CN1CCC(OC(c2ccccc2)c2ccccc2)CC1 [Diphenylpyraline hydrochloride]
Z-score Heart rate [3, 5]: -3.549 z-score
Lit. Solubility [1]: H2O, EtOH

CC(C)c1c(C(=O)Nc2ccccc2)c(-c2ccccc2)c(-c2ccc(F)cc2)n1CC[C@@H](O)C[C@@H](O)CC(=O)O [Atorvastatin, atorvastatin]
Effect on heart function / morphology: contractility, conduction, arrhythmia, HS, EF ([4]; vs DMSO controls): did not cause electrophysiological conduction defects
Effect on heart rate ([4]; vs DMSO controls): significantly decreased HR
Arrhythmia [4]: 11
Conduction defect [4]: 0
Edema: Mild (zebrafish embryos; [7]): 5
Edema: Moderate (zebrafish embryos; [7]): 1
Edema: No edema (zebrafish embryos; [7]): 5
Edema: Severe (zebrafish embryos; [7]): 0

Cc1ccc(/C(=C\CN2CCCC2)c2ccccn2)cc1.Cl [Triprolidine hydrochloride]
Lit. Solubility [1]: H2O, MeOH, EtOH

CN1CCCC(n2nc(Cc3ccc(Cl)cc3)c3ccccc3c2=O)CC1 (stereo not drawn) [Azelastine hydrochloride]
Z-score Heart rate [3, 5]: -2.598 z-score
Lit. Solubility [1]: H2O, EtOH, DMSO

CN(C)CCC(c1ccc(Br)cc1)c1ccccn1 (stereo not drawn) [Brompheniramine maleate]
Z-score Heart rate [3, 5]: -2.122 z-score

CCOC(=O)N1CCC(=C2c3ccc(Cl)cc3CCc3cccnc32)CC1 [Loratadine]
Z-score Heart rate [3, 6]: -1.771 z-score

CN(C)CCCOc1nn(Cc2ccccc2)c2ccccc12 [Benzydamine HCl]
Effect on heart function / morphology: contractility, conduction, arrhythmia, HS, EF ([4]; vs DMSO controls): do not induce arrhythmia
Effect on heart function / morphology: contractility, conduction, arrhythmia, HS, EF ([4]; vs DMSO controls, listed as BZY): no conduction defects or arrhythmias were detected; also recorded: relative ventricle contractility increased significantly
Arrhythmia [4]: 1
Conduction defect [4]: 0
Treated embryos with pericardial edema (zebrafish embryos; 20 µM): 50%
Edema: Mild (zebrafish embryos; [7]): 2
Edema: Moderate (zebrafish embryos; [7]): 0
Edema: No edema (zebrafish embryos; [7]): 2
Edema: Severe (zebrafish embryos; [7]): 0
